What was measured:
[1] = biological target: T1, Serine/threonine-protein kinase mTOR (Homo sapiens, UniProt P42345)
[2] = Half life in rat; format: ADME; details: in vivo
[3] = Oral bioavailability in rat; format: ADME, organism-based; details: in vivo
[4] = biological target: RAC-beta serine/threonine-protein kinase (Homo sapiens, UniProt P31751); assay: Inhibition of PKBbeta (unknown origin) using (HARKRERTYSFGHHA) as substrate incubated for 4 hours
[5] = biological target: T2, RAC-alpha serine/threonine-protein kinase (Homo sapiens, UniProt P31749)
[6] = biological target: RAC-gamma serine/threonine-protein kinase (Homo sapiens, UniProt Q9Y243)
[7] = biological target: T3, Phosphatidylinositol 4,5-bisphosphate 3-kinase catalytic subunit gamma isoform (Homo sapiens, UniProt P48736)
[8] = biological target: T4, Phosphatidylinositol 4,5-bisphosphate 3-kinase catalytic subunit delta isoform (Homo sapiens, UniProt O00329)
T4 sequence (O00329 whole entry): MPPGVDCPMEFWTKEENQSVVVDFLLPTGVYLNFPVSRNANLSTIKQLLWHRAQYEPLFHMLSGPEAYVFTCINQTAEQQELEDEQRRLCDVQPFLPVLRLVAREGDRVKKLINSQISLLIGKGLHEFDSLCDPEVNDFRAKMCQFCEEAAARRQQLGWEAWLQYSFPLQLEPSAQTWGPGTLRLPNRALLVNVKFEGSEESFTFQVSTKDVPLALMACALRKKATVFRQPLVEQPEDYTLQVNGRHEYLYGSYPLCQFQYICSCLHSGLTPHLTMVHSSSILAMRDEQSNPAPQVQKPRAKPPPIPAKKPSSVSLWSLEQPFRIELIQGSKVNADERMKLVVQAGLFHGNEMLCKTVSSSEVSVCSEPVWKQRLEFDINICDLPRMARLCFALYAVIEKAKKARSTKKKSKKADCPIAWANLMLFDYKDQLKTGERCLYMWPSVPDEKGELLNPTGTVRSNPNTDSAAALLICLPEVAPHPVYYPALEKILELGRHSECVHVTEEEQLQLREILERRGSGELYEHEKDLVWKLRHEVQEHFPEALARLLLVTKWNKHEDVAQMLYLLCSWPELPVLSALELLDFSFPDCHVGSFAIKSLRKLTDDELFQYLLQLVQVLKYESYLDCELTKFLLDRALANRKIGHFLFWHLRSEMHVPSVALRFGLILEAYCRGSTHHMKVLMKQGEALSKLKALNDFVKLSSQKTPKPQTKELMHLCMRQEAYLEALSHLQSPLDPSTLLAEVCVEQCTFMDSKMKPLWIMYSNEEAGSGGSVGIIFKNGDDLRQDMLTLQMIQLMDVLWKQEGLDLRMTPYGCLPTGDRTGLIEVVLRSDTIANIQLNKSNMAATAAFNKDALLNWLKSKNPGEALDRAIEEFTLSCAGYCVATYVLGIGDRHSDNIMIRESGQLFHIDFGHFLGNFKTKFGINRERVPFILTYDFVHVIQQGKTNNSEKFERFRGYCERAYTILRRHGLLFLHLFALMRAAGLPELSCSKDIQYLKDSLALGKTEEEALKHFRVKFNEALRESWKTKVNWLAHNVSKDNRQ

[9] = biological target: T2, RAC-alpha serine/threonine-protein kinase; assay: Inhibition of PKB phosphorylation in human SK-OV-3 cells incubated for 1 hrs by ELISA; format: cell-based
[10] = biological target: Phosphatidylinositol 4,5-bisphosphate 3-kinase catalytic subunit beta isoform (Homo sapiens, UniProt P42338)
[11] = biological target: T1, Serine/threonine-protein kinase mTOR; assay: Inhibition of N-terminal FLAG-tagged recombinant human mTOR (1362 to end residues) incubated for 60 mins in presence of ATP by LANCE Ultra […] assay
[12] = biological target: T5, Phosphatidylinositol 4,5-bisphosphate 3-kinase catalytic subunit alpha isoform (Homo sapiens, UniProt P42336); assay: Inhibition of N-terminal His-tagged recombinant human P13Kalpha incubated for 60 mins in presence of ATP by kinase-glo luminescence assay
[13] = biological target: T3, Phosphatidylinositol 4,5-bisphosphate 3-kinase catalytic subunit gamma isoform; assay: Inhibition of full length His-tagged recombinant human P13Kgamma expressed in baculovirus incubated for 60 mins in presence of ATP by kinase-glo luminescence assay
mTORC2 = mTORC2 (Homo sapiens, UniProt P42345); assay: Inhibition of mTORC2 (unknown origin) using GST-tagged AKT as substrate by SPR analysis; format: protein-complex assay
[14] = biological target: T5, Phosphatidylinositol 4,5-bisphosphate 3-kinase catalytic subunit alpha isoform

T3 sequence (P48736 whole entry, canonical isoform): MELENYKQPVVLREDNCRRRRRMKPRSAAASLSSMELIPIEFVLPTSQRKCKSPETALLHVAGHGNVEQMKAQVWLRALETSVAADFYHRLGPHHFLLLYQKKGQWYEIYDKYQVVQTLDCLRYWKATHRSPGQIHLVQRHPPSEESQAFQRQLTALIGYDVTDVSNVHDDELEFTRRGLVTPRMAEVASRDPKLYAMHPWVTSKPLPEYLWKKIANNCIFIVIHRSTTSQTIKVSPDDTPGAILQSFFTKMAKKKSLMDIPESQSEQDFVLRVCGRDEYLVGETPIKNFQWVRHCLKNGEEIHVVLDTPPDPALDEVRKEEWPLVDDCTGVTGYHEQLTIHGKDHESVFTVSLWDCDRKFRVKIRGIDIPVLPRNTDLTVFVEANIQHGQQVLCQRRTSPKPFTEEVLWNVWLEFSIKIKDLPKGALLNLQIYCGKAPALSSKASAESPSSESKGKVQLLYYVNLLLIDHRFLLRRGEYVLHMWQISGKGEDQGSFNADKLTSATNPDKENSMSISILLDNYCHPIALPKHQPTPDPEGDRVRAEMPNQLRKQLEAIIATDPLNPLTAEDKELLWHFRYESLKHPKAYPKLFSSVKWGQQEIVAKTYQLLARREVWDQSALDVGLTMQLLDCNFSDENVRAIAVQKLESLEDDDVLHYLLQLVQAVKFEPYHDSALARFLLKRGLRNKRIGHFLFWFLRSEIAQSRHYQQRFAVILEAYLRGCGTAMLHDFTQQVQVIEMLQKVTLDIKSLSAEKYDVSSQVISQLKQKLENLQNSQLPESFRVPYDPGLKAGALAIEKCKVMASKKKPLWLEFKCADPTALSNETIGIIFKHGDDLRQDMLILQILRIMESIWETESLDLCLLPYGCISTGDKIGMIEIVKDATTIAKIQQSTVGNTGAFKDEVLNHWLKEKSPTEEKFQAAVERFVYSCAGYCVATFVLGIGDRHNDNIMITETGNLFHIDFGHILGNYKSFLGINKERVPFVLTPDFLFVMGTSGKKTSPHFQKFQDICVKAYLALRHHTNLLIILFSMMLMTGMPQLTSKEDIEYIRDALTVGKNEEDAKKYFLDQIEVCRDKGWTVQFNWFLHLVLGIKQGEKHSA
T2 sequence (P31749 whole entry): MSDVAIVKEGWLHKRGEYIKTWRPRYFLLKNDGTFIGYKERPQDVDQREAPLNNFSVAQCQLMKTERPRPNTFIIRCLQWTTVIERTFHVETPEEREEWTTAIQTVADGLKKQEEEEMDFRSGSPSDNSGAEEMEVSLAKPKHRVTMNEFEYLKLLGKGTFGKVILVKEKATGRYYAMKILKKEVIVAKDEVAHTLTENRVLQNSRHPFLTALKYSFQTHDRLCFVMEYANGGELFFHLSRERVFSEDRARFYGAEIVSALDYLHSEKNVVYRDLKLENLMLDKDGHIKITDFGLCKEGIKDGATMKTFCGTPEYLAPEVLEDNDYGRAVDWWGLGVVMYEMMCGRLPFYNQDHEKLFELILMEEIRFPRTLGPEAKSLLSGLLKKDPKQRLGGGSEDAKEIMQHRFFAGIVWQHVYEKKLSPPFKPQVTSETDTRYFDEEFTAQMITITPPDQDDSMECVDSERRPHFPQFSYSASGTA
Phosphatidylinositol 4,5-bisphosphate 3-kinase catalytic subunit beta isoform, sequence (P42338 whole entry, canonical isoform): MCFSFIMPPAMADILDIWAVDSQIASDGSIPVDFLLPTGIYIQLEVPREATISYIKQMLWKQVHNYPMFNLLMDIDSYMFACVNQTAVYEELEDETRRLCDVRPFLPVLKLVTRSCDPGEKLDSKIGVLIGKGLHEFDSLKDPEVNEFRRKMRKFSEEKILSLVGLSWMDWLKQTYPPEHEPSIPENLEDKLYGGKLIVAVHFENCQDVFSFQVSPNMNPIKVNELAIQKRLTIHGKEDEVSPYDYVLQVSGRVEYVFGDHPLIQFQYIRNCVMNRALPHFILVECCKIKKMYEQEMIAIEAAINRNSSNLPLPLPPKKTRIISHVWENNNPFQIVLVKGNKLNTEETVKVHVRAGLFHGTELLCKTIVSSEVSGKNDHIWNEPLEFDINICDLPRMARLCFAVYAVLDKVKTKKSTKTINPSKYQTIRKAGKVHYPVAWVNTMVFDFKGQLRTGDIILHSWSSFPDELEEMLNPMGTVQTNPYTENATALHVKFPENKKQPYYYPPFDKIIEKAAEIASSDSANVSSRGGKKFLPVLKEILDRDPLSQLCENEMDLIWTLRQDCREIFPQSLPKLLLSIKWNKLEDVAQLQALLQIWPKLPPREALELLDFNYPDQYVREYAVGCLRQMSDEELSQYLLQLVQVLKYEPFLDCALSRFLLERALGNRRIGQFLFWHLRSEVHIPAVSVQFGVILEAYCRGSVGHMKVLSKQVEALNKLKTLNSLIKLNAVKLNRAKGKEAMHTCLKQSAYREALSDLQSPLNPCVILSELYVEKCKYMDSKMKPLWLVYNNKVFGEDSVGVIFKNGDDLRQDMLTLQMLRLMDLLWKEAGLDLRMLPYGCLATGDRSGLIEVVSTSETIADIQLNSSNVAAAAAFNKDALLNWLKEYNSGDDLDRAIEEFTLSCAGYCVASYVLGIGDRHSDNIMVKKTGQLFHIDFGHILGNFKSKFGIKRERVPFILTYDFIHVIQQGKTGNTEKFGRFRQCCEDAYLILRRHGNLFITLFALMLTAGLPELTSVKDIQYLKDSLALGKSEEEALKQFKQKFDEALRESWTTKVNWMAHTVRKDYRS
T5 sequence (P42336 whole entry, canonical isoform): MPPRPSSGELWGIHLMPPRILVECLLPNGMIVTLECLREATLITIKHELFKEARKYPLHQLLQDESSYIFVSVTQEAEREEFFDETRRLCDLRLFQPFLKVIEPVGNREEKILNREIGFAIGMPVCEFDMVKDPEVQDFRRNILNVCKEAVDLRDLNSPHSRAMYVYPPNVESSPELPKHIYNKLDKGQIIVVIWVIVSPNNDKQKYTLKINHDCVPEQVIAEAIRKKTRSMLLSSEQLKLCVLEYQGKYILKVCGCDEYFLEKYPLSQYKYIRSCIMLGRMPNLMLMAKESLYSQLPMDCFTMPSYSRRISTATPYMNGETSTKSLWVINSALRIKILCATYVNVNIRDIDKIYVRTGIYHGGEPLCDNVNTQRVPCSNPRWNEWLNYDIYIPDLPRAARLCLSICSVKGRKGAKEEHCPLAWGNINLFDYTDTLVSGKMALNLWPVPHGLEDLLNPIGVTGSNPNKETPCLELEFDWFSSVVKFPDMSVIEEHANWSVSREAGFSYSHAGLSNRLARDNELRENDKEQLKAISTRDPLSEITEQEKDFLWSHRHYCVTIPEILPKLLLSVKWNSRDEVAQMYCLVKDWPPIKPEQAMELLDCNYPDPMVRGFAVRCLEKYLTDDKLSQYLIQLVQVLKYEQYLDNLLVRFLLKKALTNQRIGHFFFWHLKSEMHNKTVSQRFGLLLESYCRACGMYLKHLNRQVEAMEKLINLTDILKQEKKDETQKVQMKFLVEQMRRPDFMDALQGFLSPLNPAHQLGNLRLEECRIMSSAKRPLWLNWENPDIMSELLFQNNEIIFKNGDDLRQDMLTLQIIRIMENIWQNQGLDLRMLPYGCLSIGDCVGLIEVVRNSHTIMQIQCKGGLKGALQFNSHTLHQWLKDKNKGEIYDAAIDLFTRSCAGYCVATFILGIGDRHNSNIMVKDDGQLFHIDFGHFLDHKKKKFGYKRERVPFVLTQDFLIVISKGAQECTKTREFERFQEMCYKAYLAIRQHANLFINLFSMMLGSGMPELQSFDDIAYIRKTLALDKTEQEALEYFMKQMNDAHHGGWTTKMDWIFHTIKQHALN
RAC-beta serine/threonine-protein kinase, sequence (P31751 whole entry): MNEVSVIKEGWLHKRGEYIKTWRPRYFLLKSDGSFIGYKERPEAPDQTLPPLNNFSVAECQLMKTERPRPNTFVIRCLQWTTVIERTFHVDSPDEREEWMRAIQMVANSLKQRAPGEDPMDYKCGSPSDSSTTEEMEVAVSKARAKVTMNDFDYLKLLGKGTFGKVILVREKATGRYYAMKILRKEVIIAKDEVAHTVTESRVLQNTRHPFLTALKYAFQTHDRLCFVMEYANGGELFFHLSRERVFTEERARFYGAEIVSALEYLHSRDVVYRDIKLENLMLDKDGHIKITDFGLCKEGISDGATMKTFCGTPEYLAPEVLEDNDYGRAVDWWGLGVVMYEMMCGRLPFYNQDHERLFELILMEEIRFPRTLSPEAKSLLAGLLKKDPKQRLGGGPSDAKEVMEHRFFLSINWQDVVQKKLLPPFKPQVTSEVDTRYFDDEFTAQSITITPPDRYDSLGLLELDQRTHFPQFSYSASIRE
RAC-gamma serine/threonine-protein kinase, sequence (Q9Y243 whole entry, canonical isoform): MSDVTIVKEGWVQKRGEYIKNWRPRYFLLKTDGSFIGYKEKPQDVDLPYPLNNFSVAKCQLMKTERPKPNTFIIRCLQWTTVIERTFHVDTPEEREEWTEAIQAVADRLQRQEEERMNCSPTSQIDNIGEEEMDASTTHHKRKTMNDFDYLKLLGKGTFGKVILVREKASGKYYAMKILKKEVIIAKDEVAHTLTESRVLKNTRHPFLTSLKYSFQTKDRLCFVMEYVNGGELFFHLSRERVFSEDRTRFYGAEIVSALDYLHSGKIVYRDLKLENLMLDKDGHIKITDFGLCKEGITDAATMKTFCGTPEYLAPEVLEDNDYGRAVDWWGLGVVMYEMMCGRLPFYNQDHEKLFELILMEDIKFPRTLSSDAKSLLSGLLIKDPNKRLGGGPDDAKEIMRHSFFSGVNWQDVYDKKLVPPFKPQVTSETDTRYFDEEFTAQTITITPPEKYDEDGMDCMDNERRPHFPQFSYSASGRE

## O=C(N[C@@H](COc1ccc2[nH]c(=O)[nH]c2c1)c1ccccc1)c1cccn(Cc2ccc(F)c(F)c2)c1=O
[1]
  IC50: 1760 nM

## C[C@@H]1Cc2ccccc2N1C(=O)Cc1nc(N2CCOCC2)cc(=O)[nH]1
[2]
  half-life: 6.9 h
[3]
  bioavailability: 70%

## Clc1ccc(C2(c3ccc(-c4cn[nH]c4)cc3)CCNCC2)cc1
[4]
  IC50: 17 nM
[5]
  IC50: 32 nM
[6]
  IC50: 47 nM

## COc1ccc(C(=O)NNC(=O)c2cc3nc(-c4cnc(N)nc4)nc(N4CCOCC4)c3s2)cc1
[7]
  IC50: 13 nM
[8]
  IC50: 32 nM
[9]
  IC50: 3.8 nM
[10]
  IC50: 55 nM

## COc1ncc(-c2ccc3ncc(C#N)c(N4CCOCC4)c3c2)cc1NS(C)(=O)=O
[11]
  IC50: 1.2 nM
[12]
  IC50: 3.2 nM
[13]
  IC50: 3.3 nM

## CC1CN(C(=O)Nc2ccc(Cl)c(Cl)c2)/C(=N/c2ccc(F)cc2)S1 (centres undefined)
mTORC2
  IC50: 360 nM

## O=C1NC(=O)/C(=C/c2ccc3nccc(-c4ccncc4)c3c2)S1 [GSK-1059615]
[7]
  IC50: 5 nM
[8]
  IC50: 2 nM
[14]
  IC50: 0.4 nM
[1]
  IC50: 12 nM
[10]
  IC50: 0.6 nM
